Experimental data from patent US6645982B2, “Crystal forms of 6-[(4-chloro-phenyl)-hydroxy-(3-methyl-3H-imidazol-4-yl)-methyl]-4-(3-ethynyl-phenyl)-1-methyl-1H-quinolin-2-one, 2,3-dihydroxybutanedioate salts and method of production” (Pfizer Inc, priority 2000, dated 2003).

Assay: solubility in gastric fluids
Assay type: physicochemical
Details: compared to other salts of the compound of formula I, i.e., HCl

solubility in gastric fluids: improved solubility
Structure (SMILES): C#Cc1cccc(-c2cc(=O)n(C)c3ccc(C(O)(c4ccc(Cl)cc4)c4cncn4C)cc23)c1.O=C(O)C(O)C(O)C(=O)O (stereo not shown) [6-[(4-chloro-phenyl)-hydroxy-(3-methyl-3H-imidazol-4-yl)-methyl]-4-(3-ethynyl-phenyl)-1-methyl-1H-quinolin-2-one, 2,3-dihydroxybutanedioate (1:1)]
